In ChEMBL document CHEMBL3507680, “University of Dundee, Gates Library screen for HepG2 cell viability”:

Assay: Human HepG2 cell viability assay in 384 well format
Type: toxicity, cell-based
Parameters: dose 125 nL, time 70.5 hour; concentration not given beside the values
Conditions: HepG2 cells, read-out: Inhibition

Row | Compound | cytotoxicity at 70.5 h
1 | COCCC(C)NC(=O)c1cc(Br)c2c(c1)OCCO2 (configuration not stated) | -10.3%
2 | Cc1ccccc1-c1noc(CN2CCn3c(nnc3C3CC3)C2)n1 | 20.5%
3 | Cn1cc(CC(=O)N2CCOC(c3nc(C(C)(C)C)n[nH]3)C2)cn1 (configuration not stated) | -1.3%
4 | COCCN(C)C[C@@H]1CN(C(=O)NC2CCCCC2)C[C@@H]1CO | -8.61%
5 | CCc1cc(N(C)CCC(O)c2ccccc2)n2nccc2n1 (configuration not stated) | 30.6%
6 | Cc1cc(C(F)(F)F)nn1C(C)C(=O)Nc1ccncc1 (configuration not stated) | 23.9%
7 | CS(=O)(=O)N1CCC(Oc2ccc(C(=O)NC3CCOC3)cc2Cl)CC1 (configuration not stated) | -7.64%
8 | O=S(=O)(CCN1CCc2c(ncn2C2CC2)C1)c1ccccc1 | 16.5%
9 | Cc1cc(-c2ccccc2C(=O)O)nc(C2CCCCN2C)n1 (configuration not stated) | -6.42%
10 | CC(C)CN1CCN(C(=O)c2ccncc2F)Cc2cccnc21 | -9.62%
11 | O=C(NCCC(O)c1ccco1)c1ccco1 (configuration not stated) | -5.28%
12 | COCC(C)(O)CNC(=O)COc1ccccc1OC (configuration not stated) | -3.09%
13 | COc1ccc(C2C3=C(CCCC3=O)Nc3nc(SC)nc(N)c32)cc1 (configuration not stated) | 6.58%
14 | CN(Cc1nnc(C2CC2)o1)C1CCN(CCCc2cnn(C)c2)C1 (configuration not stated) | 6.71%
15 | CCN(C)C(=O)CN1CCC(c2cc(N3CCOCC3)nc(C)n2)CC1 | -6.04%
16 | C/C=C(\C)CN1C[C@H](NC(=O)c2cc[nH]c2C)[C@@H](C2CC2)C1 | 10.6%
17 | CCN1C[C@@H]2[C@@H](OC)CCN(S(=O)(=O)c3ccccc3F)[C@@H]2C1 | -9.34%
18 | Cc1cc(C)c2[nH]c(CN3CCCC(N4CCOCC4)C3)cc(=O)c2c1 (configuration not stated) | -5.41%
19 | CC(NC(=O)c1ccc2c(c1)OCC(=O)N2)c1ccccc1F (configuration not stated) | 0.146%
20 | O=C1C[C@H]2CC[C@@H](CN1)N2C1CSCCSC1 | 17.4%
21 | COc1cc(CNc2nncs2)cc(OC)c1OC | 12.6%
22 | COc1ccc(CN(C)[C@@H]2CN(C(=O)c3ccnn3C)C[C@H]2O)cc1 | -3.38%
23 | Cc1nnc([C@@H]2CC[C@@H]3[C@@H](CCN3C3CCC3)O2)o1 | -4.45%

Row | Compound | cytotoxicity at 70.5 h
24 | CCc1n[nH]c(C(=O)NCCn2ccc(C)n2)c1C | 17.6%
25 | COCCC(=O)Nc1nccn1Cc1ccc(Br)cc1 | -0.141%
26 | CC(=O)Nc1ccc(Oc2cc(C)nc(C3CCCNC3)c2)cc1 (configuration not stated) | -3.03%
27 | Cc1nc(C)n(CC2CCCN(CCOc3ccccc3F)C2)n1 (configuration not stated) | 28.7%
28 | CC(NC(=O)N1CCN(c2cccs2)CC1)c1ccc(C#N)cc1 (configuration not stated) | -2.79%
29 | COc1cccc(CN(C)C(C)C(=O)Nc2nc(C)c(C)s2)c1 (configuration not stated) | -11.4%
30 | CNC(=O)[C@@H](c1ccccc1F)N1CCC[C@H]1C(=O)NC1CCOCC1 | -12.5%
31 | Cc1n[nH]c(C2CN(Cc3csc(C4CCCC4)n3)CCO2)n1 (configuration not stated) | -6.59%
32 | CC1COC2(CCN(C(=O)Cc3ccncc3)CC2)C1 (configuration not stated) | -0.819%
33 | Cc1noc(C)c1-c1cccc(CC2CCN(C(=O)c3cc[nH]n3)C2)n1 (configuration not stated) | -18%
34 | Cc1ccc2c(c1)CN(CC(=O)NCCc1ccc(F)cc1)CC(C)O2 (configuration not stated) | -7.54%
35 | COc1ccc(OCCN(C)C(=O)NC(C)c2nncn2C)cc1 (configuration not stated) | -1.05%
36 | O=C(NC1CC1)N1CCc2ncnc(-c3ccncc3)c2CC1 | 18.5%
37 | CCOc1ccc(S(=O)(=O)NCCCc2ccc(N(C)C)cc2)cc1F | 0.733%
38 | COc1ccc(N(C(=O)c2cnc(C)cn2)C(C)C)cc1F | -3.96%
39 | CCn1nc(C)c2nn(CC(=O)NC3CCSCC3)cc21 | 6.6%
40 | Cc1cccc2[nH]c(C3CCN(C(=O)c4c[nH]c(=O)[nH]c4=O)CC3)nc12 | -7.98%
41 | CC(C)[C@H]1CN(S(=O)(=O)c2cccnc2)C[C@@H]1N | 0.829%
42 | Cc1noc(C)c1C(=O)N1CC[C@H]2C[C@@H](c3nccs3)O[C@@H]2C1 | -13.5%
43 | O=C(c1ccncn1)N1C[C@@H]2CN(Cc3cccnc3)CCO[C@@H]2C1 | -12.7%
44 | Cn1ccc(CN2CCC3(CC2)CC(Nc2cnccn2)CO3)n1 (configuration not stated) | -1.03%
45 | COc1ccc(OCc2cc(C(=O)N3CCSCC3)n[nH]2)c(Cl)c1 | -5.04%
46 | Cc1nc(N)sc1C(=O)N1CCC(C(O)Cc2ccccc2)CC1 (configuration not stated) | -7.21%

Row | Compound | cytotoxicity at 70.5 h
47 | CC(=O)Nc1ncc(S(=O)(=O)N2CCC(C)CC2)s1 | -8.58%
48 | CCC(=O)N1CCN(C(=O)Cn2cccn2)CC1 | -4.66%
49 | CC(C)Oc1ccc(C(=O)N2CCCCC2Cn2cccn2)cn1 (configuration not stated) | -4.78%
50 | COc1ccc(CCCN(C)C(=O)c2cc(C(C)=O)c[nH]2)cc1OC | -8.38%
51 | CCN1CC2(CC1=O)CN(Cc1ccc(C)o1)CCN(C(=O)C(C)C)C2 (configuration not stated) | -16.6%
52 | O=C(NC[C@H]1OC[C@@H](NC2CCOCC2)[C@@H]1O)c1cccs1 | -8.14%
53 | Cc1nccn1C1CCCN(C(=O)c2ccnc(-n3ccnc3)c2)C1 (configuration not stated) | 10.7%
54 | Cc1noc(C)c1-c1cccc(CC2CCN(C(=O)CN)C2)n1 (configuration not stated) | -4.83%
55 | COc1ccc(C(=O)N2CC(=O)N(C3CCC3)CC(O)C2)cc1OC (configuration not stated) | -5.23%
56 | CCn1cc(Br)c(C(=O)NCc2cnn(C)c2)n1 | -13.6%
57 | O=C(c1cc(Cl)c2c(c1)OCO2)N1CCN(c2cnccn2)CC1 | 0.695%
58 | c1cc(N2CCSCC2)ccc1CNc1cncc2nnnn12 | -12.4%
59 | CCCN(C)C(=O)c1cc(Br)cc(S(=O)(=O)N2CCOCC2)c1F | 6.3%
60 | CCCNC(=O)CN1CCC(C(=O)Nc2cnn(CC)c2)CC1 | -10.8%
61 | OCc1ccc(CN2CCC(n3cc(C4CCCCC4)nn3)CC2)o1 | -7.14%
62 | CC1CCN(CCNC(=O)C2CCN(C(=O)NC(C)C)CC2)CC1 | -6.3%
63 | c1cnn(Cc2nnc3n2CCCN(c2nccs2)C3)c1 | 12.8%
64 | O=C1CN(C(=O)c2nnn(-c3ccc(C(F)(F)F)cc3)n2)CCN1 | -14.4%
65 | c1ccc(CN2CCc3ncnc(-c4cncnc4)c3CC2)nc1 | 21.8%
66 | Cn1cc(N2CC3(CCN(Cc4nccn4C)C3)CC2=O)cn1 (configuration not stated) | -12.4%
67 | O=C(CCc1ccco1)N1CCCN(Cc2cscn2)CC1 | 11.4%
68 | Cc1ccoc1CNC(C)c1nnc2n1CCCC2 (configuration not stated) | 13%
69 | Cc1cc(CN2C[C@@H]3CN(C(=O)c4ccco4)CCO[C@@H]3C2)no1 | -5.36%

Row | Compound | cytotoxicity at 70.5 h
70 | CC1CCCCN1C(=O)c1n[nH]c(=O)c2ccccc12 (configuration not stated) | 32.4%
71 | COc1cc(C(=O)N2C[C@H]3CC[C@@H]2CN(Cc2cscn2)C3)ccn1 | -22.3%
72 | CCN1C(=O)CC[C@@H]2N(C(=O)CCn3nccc3C)CCCC[C@@]21C | -6.96%
73 | O=C(Nc1ccc(CCN2CCSCC2)cc1)NC1CC1 | -11.9%
74 | CCc1noc(CS(=O)(=O)c2cccc(OC)c2)n1 | 4.71%
75 | CC(C)CN1CCC2(CC1)CC(NS(C)(=O)=O)c1ccccc1O2 (configuration not stated) | 3.23%
76 | O=C1[C@H]2CN(S(=O)(=O)c3cccs3)C[C@H]2CN1CC1CC1 | -2.27%
77 | O=C(c1cccc(Cl)c1)N1CCCn2c(CN3CCCCC3)nnc2C1 | -1.86%
78 | Cn1c(Cn2cccn2)nnc1C1CCN(Cc2cccnc2N)CC1 | -0.251%
79 | Cc1ccc(CC2COCCN(Cc3ccccc3)C2)nc1 (configuration not stated) | -2.48%
80 | c1nc(N2CCCCC2Cn2cncn2)c2sccc2n1 (configuration not stated) | -5.69%
81 | O=C(c1ccccn1)N1CCC(Nc2cccnn2)CC1 | 2.46%
82 | Cc1cnc(CC2COCCN(C(=O)CN3CCCCC3)C2)cn1 (configuration not stated) | -2.32%
83 | CCCNC(=O)CN1CCN(Cc2csc(C(C)(C)C)n2)CC1 | 4.04%
84 | CCOCC(=O)NCC1CCN(Cc2ccsc2)CC1 | 1.54%
85 | CN(CCN1CCCC1=O)S(=O)(=O)CC1CCCC1 | -4.62%
86 | O=S1(=O)CCC(n2cc(C3=CCN(CCn4cccc4)CC3)cn2)C1 (configuration not stated) | 26.8%
87 | CCN(CC)CC1CCN(Cc2ncc(C(C)(C)C)o2)CC1 | 1.11%
88 | Nc1nccc(C2CCCN(CC3CC3)C2)n1 (configuration not stated) | -4.18%
89 | CN(C)c1nccc(-c2c[nH][nH]c2=O)n1 | -1.59%
90 | CN1CCN(Cc2cnn(-c3ccc(F)cc3)c2)[C@H]2CS(=O)(=O)C[C@H]21 | -4.08%
91 | CC(O)(CNC(=O)NCCc1ccc2c(c1)CCO2)c1ccsc1 (configuration not stated) | 1.66%
92 | CN(C)C(=O)c1cccc(CCNc2ccccc2S(C)(=O)=O)c1 | -0.957%

Row | Compound | cytotoxicity at 70.5 h
93 | CN(Cc1cccc(C#N)c1)Cn1nc(C(C)(C)C)ccc1=O | -0.146%
94 | CNC(=O)CNC(=O)Nc1ccc(F)c(Br)c1 | -2.46%
95 | CN(Cc1cc2cc(F)ccc2[nH]1)C(=O)C1CC(=O)N(C2CC2)C1 (configuration not stated) | -2.65%
96 | CC(=O)Nc1nc2c(s1)C1(CCN(C)CC1)Nc1ccccc1S2 | 3.04%
97 | O=C(NC1CC1)c1cc(C(F)(F)F)cc(C(F)(F)F)n1 | -9.57%
98 | CN1CCN(Cc2ccccc2Oc2cncc(C(N)=O)n2)CC1 | -3.62%
99 | CCCN(CCC)C(=O)c1cc(CN2CCC(O)CC2)on1 | -6.98%
100 | N#Cc1ccc(N2CCCN(C(=O)CC3CCCO3)CC2)cc1 (configuration not stated) | -15.2%
101 | Cn1ncc2c(=O)[nH]c(CN3CCCC3CC(C)(C)C)nc21 (configuration not stated) | -4%
102 | O=C(Cc1ccccn1)N1C[C@H](OCc2cccnc2)[C@H]2COC[C@H]21 | 0.247%
103 | Cc1cc(C(=O)NCCN2CCCC(C)C2)nn1C (configuration not stated) | -5.9%
104 | COCCN(C)C(=O)c1nc2c(s1)CCCN2c1ncccn1 | -3.25%
105 | Cn1cccc1-c1cc(C(=O)NCCc2nnc(N)s2)[nH]n1 | 4.96%
106 | Cc1cc(CNC(=O)CCCN2CCCCC2)n(C)n1 | 12.2%
107 | Cc1cc(C(=O)N2CC[C@H]3C[C@H](c4ccncn4)O[C@@H]3C2)c(C)[nH]1 | -4.78%
108 | CN1CCCC(CCC(=O)NCCc2nnc(N)s2)C1 (configuration not stated) | 9.25%
109 | CC(C)n1cc(C(=O)N2CCC(n3cc(C(C)(C)C)nn3)CC2)cn1 | -12.1%
110 | COc1ccc(Cl)cc1NCC(=O)NCc1cccnc1OC | 17.6%
111 | CCOc1ccc(-c2ccc3c(c2)OCO3)cc1C(N)=O | 5.58%
112 | CCN1CCC(CNC(=O)C(c2ccc(F)cc2)N(C)C)(N(C)C)CC1 (configuration not stated) | -6.97%
